From PubChem BioAssay (NCI)
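Where inhibition never reached the appropriate level, the endpoint shown equals the highest concentration tested. Otherwise, values were interpolated linearly from a five-concentration, 48-hour dose response in 96-well plates. At the GI50, growth is halved. The concentration for full growth arrest is given as TGI.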

Experiments:
Assay in all cases: NCI tumour cell line growth inhibition, 48 h
[1] = system: SNB-19 CNS
[2] = system: RXF 393 renal
[3] = system: K-562 leukemia
[4] = system: IGROV1 ovarian
[5] = system: HCT-15 colon
[6] = system: SK-OV-3 ovarian
[7] = system: 786-0 renal
[8] = system: SK-MEL-28 melanoma
[9] = system: UO-31 renal
[10] = system: HOP-62 NSCLC
[11] = system: COLO 205 colon
[12] = system: U251 CNS
[13] = system: NCI-H23 lung
[14] = system: NCI-H522 lung
[15] = system: MOLT-4 leukemia
[16] = system: A549 NSCLC
[17] = system: RPMI-8226 leukemia
[18] = system: NCI-H226 lung
[19] = system: HT29 colon
[20] = system: LXFL 529 NSCLC
[21] = system: EKVX NSCLC
[22] = system: SW-620 colon
[23] = system: SNB-75 CNS
[24] = system: SF-268 CNS
[25] = system: M14 melanoma
[26] = system: HL-60(TB) leukemia
[27] = system: ACHN renal
[28] = system: XF 498 CNS
[29] = system: HOP-92 NSCLC
[30] = system: SF-295 CNS
[31] = system: SN12C renal
[32] = system: DLD-1 colon
[33] = system: UACC-62 melanoma
[34] = system: OVCAR-8 ovarian
[35] = system: SNB-78 CNS
[36] = system: M19-MEL melanoma
[37] = system: SF-539 CNS
[38] = system: KM20L2 colon
[39] = system: OVCAR-4 ovarian
[40] = system: HOP-18 NSCLC
[41] = system: CCRF-CEM leukemia
[42] = system: SK-MEL-5 melanoma
[43] = system: UACC-257 melanoma
[44] = system: DMS 273 small cell lung
[45] = system: MALME-3M melanoma
[46] = system: HCC-2998 colon
[47] = system: A498 renal
[48] = system: HCT-116 colon
[49] = system: SR leukemia
[50] = system: OVCAR-5 ovarian
[51] = system: OVCAR-3 ovarian
[52] = system: SK-MEL-2 melanoma
[53] = system: NCI-H460 lung
[54] = system: KM12 colon
[55] = system: LOX IMVI melanoma
[56] = system: CAKI-1 renal
[57] = system: TK-10 renal
[58] = system: DMS 114 small cell lung

COc1ccc2c3ccc4c(c3n(C)c2c1)C(=O)C=CC4=O
TGI [1]: > 100 µM
TGI [2]: 37.5 µM
TGI [3]: 26.6 µM
TGI [4]: > 100 µM
TGI [5]: > 100 µM
TGI [6]: > 100 µM
TGI [7]: 32.9 µM
TGI [8]: > 100 µM
TGI [9]: 90.3 µM
TGI [10]: > 100 µM
TGI [11]: > 100 µM
TGI [12]: > 100 µM
TGI [13]: > 100 µM
TGI [14]: 22.4 µM
TGI [15]: 13.6 µM
TGI [16]: > 100 µM
TGI [17]: 48.4 µM
TGI [18]: > 100 µM
TGI [19]: > 100 µM
TGI [20]: 28.6 µM
TGI [21]: > 100 µM
TGI [22]: 30.6 µM
TGI [23]: > 100 µM
TGI [24]: > 100 µM
TGI [25]: > 100 µM
TGI [26]: 19.8 µM
TGI [27]: 59.6 µM
TGI [28]: 52.5 µM
TGI [29]: 32.3 µM
TGI [30]: > 100 µM
TGI [31]: > 100 µM
TGI [32]: 30.2 µM
TGI [33]: > 100 µM
TGI [34]: 33.2 µM
TGI [35]: > 100 µM
TGI [36]: 46.2 µM
TGI [37]: 52.8 µM
TGI [38]: > 100 µM
TGI [39]: 92.5 µM
TGI [40]: > 100 µM
TGI [41]: 49.9 µM
TGI [42]: > 100 µM
TGI [43]: > 100 µM
TGI [44]: > 100 µM
TGI [45]: > 100 µM
TGI [46]: > 100 µM
TGI [47]: > 100 µM
TGI [48]: 48.4 µM
TGI [49]: 22.2 µM

O/N=C(\C(=N/O)Nc1ccc(-c2ccc(NC(=N/O)/C(=N\O)c3ccccc3)cc2)cc1)c1ccccc1
TGI [1]: 50.7 µM
TGI [3]: 44 µM
TGI [4]: 57.6 µM
TGI [5]: 70 µM
TGI [6]: 33.8 µM
TGI [7]: 41.4 µM
TGI [9]: 82.9 µM
TGI [50]: 27.5 µM
TGI [10]: 30.1 µM
TGI [11]: 30.4 µM
TGI [12]: 60.9 µM
TGI [13]: 32.1 µM
TGI [14]: 33.3 µM
TGI [15]: 41.3 µM
TGI [16]: 79.1 µM
TGI [17]: 57.9 µM
TGI [18]: 69.2 µM
TGI [19]: 29.2 µM
TGI [20]: 32.2 µM
TGI [21]: 57.9 µM
TGI [22]: 49.8 µM
TGI [24]: 69.2 µM
TGI [25]: 32.8 µM
TGI [26]: 55.6 µM
TGI [27]: 97.2 µM
TGI [51]: 40.2 µM
TGI [28]: 41.3 µM
TGI [29]: 58.1 µM
TGI [30]: 37.4 µM
TGI [31]: 97.3 µM
TGI [32]: 53.8 µM
TGI [33]: 35.4 µM
TGI [52]: 36.3 µM
TGI [53]: 32.4 µM
TGI [34]: 45 µM
TGI [35]: 97.4 µM
TGI [54]: 33.6 µM
TGI [36]: 31.4 µM
TGI [37]: 35.3 µM
TGI [38]: 36.5 µM
TGI [40]: 37.3 µM
TGI [41]: 46.3 µM
TGI [55]: 29.1 µM
TGI [42]: 34.8 µM
TGI [43]: 80.6 µM
TGI [44]: 36.3 µM
TGI [56]: 62.9 µM
TGI [45]: 44.7 µM
TGI [46]: 18.7 µM
TGI [47]: 51 µM
TGI [57]: 82.4 µM
TGI [48]: 34.6 µM

O=C1OC(c2cccc(C(F)(F)F)c2)(c2cccc(C(F)(F)F)c2)c2ccc3ccccc3c21
TGI [1]: > 100 µM
TGI [2]: > 100 µM
GI50 [3]: 4.29 µM
TGI [3]: > 100 µM
GI50 [4]: > 100 µM
TGI [4]: > 100 µM
TGI [5]: > 100 µM
GI50 [6]: > 100 µM
TGI [6]: > 100 µM
GI50 [7]: > 100 µM
TGI [7]: > 100 µM
GI50 [8]: > 100 µM
TGI [8]: > 100 µM
GI50 [9]: > 100 µM
TGI [9]: > 100 µM
GI50 [50]: > 100 µM
TGI [50]: > 100 µM
GI50 [10]: > 100 µM
TGI [10]: > 100 µM
GI50 [11]: > 100 µM
TGI [11]: > 100 µM
TGI [12]: > 100 µM
GI50 [13]: 3.92 µM
TGI [13]: > 100 µM
GI50 [15]: 7.21 µM
TGI [15]: > 100 µM
GI50 [16]: > 100 µM
TGI [16]: > 100 µM
GI50 [17]: 7.56 µM
TGI [17]: > 100 µM
TGI [18]: > 100 µM
GI50 [20]: 7.26 µM
TGI [20]: > 100 µM
GI50 [21]: > 100 µM
TGI [21]: > 100 µM
GI50 [22]: > 100 µM
TGI [22]: > 100 µM
GI50 [23]: > 100 µM
TGI [23]: > 100 µM
TGI [24]: > 100 µM
GI50 [25]: > 100 µM
TGI [25]: > 100 µM
TGI [26]: > 100 µM
TGI [27]: > 100 µM
GI50 [51]: 22.4 µM
TGI [51]: > 100 µM
TGI [28]: > 100 µM
TGI [29]: > 100 µM
TGI [30]: > 100 µM
GI50 [31]: > 100 µM
TGI [31]: > 100 µM
GI50 [32]: > 100 µM
TGI [32]: > 100 µM
GI50 [33]: > 100 µM
TGI [33]: > 100 µM
GI50 [52]: > 100 µM
TGI [52]: > 100 µM
GI50 [34]: > 100 µM
TGI [34]: > 100 µM
GI50 [35]: > 100 µM
TGI [35]: > 100 µM
TGI [54]: > 100 µM
GI50 [58]: 4.44 µM
TGI [58]: > 100 µM
TGI [37]: > 100 µM
TGI [38]: > 100 µM
GI50 [39]: > 100 µM
TGI [39]: > 100 µM
GI50 [40]: > 100 µM
TGI [40]: > 100 µM
GI50 [41]: 9.13 µM
TGI [41]: > 100 µM
GI50 [55]: > 100 µM
TGI [55]: > 100 µM
GI50 [42]: 5.26 µM
TGI [42]: > 100 µM
TGI [43]: > 100 µM
GI50 [44]: > 100 µM
TGI [44]: > 100 µM
TGI [56]: > 100 µM
GI50 [45]: > 100 µM
TGI [45]: > 100 µM
GI50 [46]: > 100 µM
TGI [46]: > 100 µM
GI50 [47]: > 100 µM
TGI [47]: > 100 µM
GI50 [57]: > 100 µM
TGI [57]: > 100 µM
